Source: PMC5834442, “Identifying inhibitors of the Leishmania inositol phosphorylceramide synthase with antiprotozoal activity using a yeast-based assay and ultra-high throughput screening platform” (Scientific Reports, 2018)
Where two headings read alike, the source gives them in different places.

Columns and labels:
[1] = tested on: L. donovani (MHOM/SD/62/1S-CL2D, LdBOB) axenic amastigotes; experiment: Leishmania donovani axenic amastigote dose response assay (resazurin); assay type: cell-based; settings: -logIC50 mol against L. donovani (LdBOB) axenic amastigotes, read-out: pIC50 Axenic (converted)
HepG2 cells = experiment: Mammalian cell cytotoxicity assay (CellTiter-Glo); assay type: cell-based, human; settings: for IC50: Homo sapiens, -logIC50 mol against HepG2, read-out: PIC50 HepG2 (converted)
[2] = tested on: intra-macrophage Leishmania donovani amastigotes; experiment: Intramacrophage Leishmania donovani assay (high content imaging); assay type: cell-based; settings: Leishmania donovani
THP-1 macrophages = experiment: Host cell toxicity in the intramacrophage assay; assay type: cell-based, human; settings: for IC50: Homo sapiens, THP-1 host cells in intramacrophage assay, read-out: pIC50 THP-1 (converted)
[3] = selectivity: pIC50 axenic minus pIC50 HepG2
[4] = intramacrophage L. donovani, read-out: pIC50 InMac (converted)
[5] = selectivity: pIC50 InMac minus pIC50 THP-1
[6] = selectivity, pIC50 axenic minus pIC50 HepG2
[7] = intramacrophage L. donovani amastigotes, read-out: pIC50 InMac (converted)
[8] = selectivity, pIC50 InMac minus pIC50 THP-1
[9] = −logIC50 M, L. donovani infected THP-1 macrophages, 96 hours, read-out: pIC50 against intra-macrophage L. donovani amastigotes (converted)

Row | SMILES | IC50 [1] | IC50 (HepG2 cells) | pSI v HepG2 (HepG2 cells; [3]) | IC50 [2, 4] | IC50 (THP-1 macrophages) | pSI v THP-1 (THP-1 macrophages; [5]) | pSI v HepG2 (HepG2 cells) | pSI v HepG2 (HepG2 cells; [6]) | IC50 [2, 7] | pSI v THP-1 (THP-1 macrophages; [8]) | IC50 [2, 9]
1 | Cc1ncccc1Oc1ncc(Cl)cc1S(=O)(=O)Nc1cccc(Cl)c1F [AV207107-107A1] | 8.13 µM | > 100 µM | 1.09 | > 50.1 µM | > 50.1 µM | 0.00 |  |  |  |  | 
2 | O=C(O)C(F)(F)F.O=S(=O)(c1ccc2c(c1)CCN(Cc1ccc(F)cc1)CC2)n1cccc1 [CS100462-069A11B16] | 0.0229 µM | > 100 µM |  | 3.31 µM | 31.6 µM | 0.98 | 3.64 |  |  |  | 
3 | O=C(O)C(F)(F)F.O=S(=O)(c1ccc2c(c1)CCN(Cc1cccnc1)CC2)n1ccc2c(F)cccc21 [CS100462-069A14B4] | 0.447 µM | 52.5 µM |  | 2 µM | 33.9 µM | 1.23 | 2.07 |  |  |  | 
4 | Cc1ccnc(-c2nn[nH]c2Br)c1 [LK45855-125A1] | 1.74 µM | > 100 µM | 1.76 | 33.1 µM | 32.4 µM | -0.01 |  |  |  |  | 
5 | N#Cc1ccc(N2CCCC[C@H]2c2cccnc2)c([N+](=O)[O-])c1.O=C(O)C(F)(F)F.O=C(O)C(F)(F)F [MA102475-064A1B46] | 5.01 µM | 95.5 µM |  | 2.04 µM | > 50.1 µM | 1.39 | 1.28 |  |  |  | 
6 | O=C(O)C(F)(F)F.O=c1[nH]ccc2nc(NCCc3c[nH]cn3)nc(Nc3cccc(S(=O)(=O)N4CCOCC4)c3)c12 [N4347-22-1] | 10 µM | > 100 µM |  | 38.9 µM | > 50.1 µM | 0.11 | 1.00 |  |  |  | 
7 | COc1ccc(CN2CCN(S(=O)(=O)c3ccc(OC(F)(F)F)cc3)CC2)cc1 [SC/122159] | 0.275 µM | > 100 µM | 2.56 | 35.5 µM | > 50.1 µM | 0.15 |  |  |  |  | 
8 | CCCCCNC(=O)c1c(O)c2ccccc2[nH]c1=O [ST/243992] | 2.09 µM | > 100 µM | 1.68 | > 50.1 µM | > 50.1 µM | 0.00 |  |  |  |  | 
9 | COc1cccc(-c2csc(NC(=O)c3cccc(Cl)c3)c2C(=O)O)c1 [ST/266497] | 7.08 µM | > 100 µM | 1.15 | 45.7 µM | > 50.1 µM | 0.04 |  |  |  |  | 
10 | O=C(Nc1nc2ccc([N+](=O)[O-])cc2s1)c1cc(Cl)sc1Cl [ST/489542] | 1.29 µM | 10 µM | 0.89 |  |  |  |  |  |  |  | 
11 | CNC(=O)c1ccsc1NC(=O)c1ccc([N+](=O)[O-])s1 [ST/492114] | 0.891 µM | > 100 µM | 2.05 | 1.41 µM | > 50.1 µM | 1.55 |  |  |  |  | 
12 | O=C(Nc1ccc(OC(F)(F)F)cc1)Nc1ccc([N+](=O)[O-])cc1 [ST/500242] | 4.27 µM | 14.1 µM | 0.52 |  |  |  |  |  |  |  | 
13 | Cc1cc(C)n2nc(S(=O)(=O)Nc3ccccc3[N+](=O)[O-])nc2n1 [ST/512740] | 9.33 µM | > 100 µM | 1.03 | > 50.1 µM | > 50.1 µM | 0.00 |  |  |  |  | 
14 | C=CCSc1nsc(NC(=O)Nc2ccc(Cl)cc2C(F)(F)F)n1 [ST/566960] | 0.501 µM | 23.4 µM | 1.67 |  |  |  |  |  |  |  | 
15 | O=C(Nc1nnc(C(F)(F)F)s1)c1ccc(Cl)cc1 [ST/570135] | 3.47 µM | 16.2 µM | 0.67 |  |  |  |  |  |  |  | 
16 | O=C(Nc1cccc(S(=O)(=O)Nc2ccccc2Cl)c1)c1ccc([N+](=O)[O-])o1 [ST/579040] | 0.49 µM | 22.4 µM | 1.66 | 11.2 µM | 12 µM | 0.03 |  |  |  |  | 
17 | O=C(Nc1nnc(C(F)(F)F)s1)c1ccc([N+](=O)[O-])c(Cl)c1 [ST/640830] | 2.95 µM | 25.7 µM | 0.94 |  |  |  |  |  |  |  | 
18 | O=[N+]([O-])c1cc(NS(=O)(=O)c2ccc(Cl)c(C(F)(F)F)c2)ccc1F [ST/654862] | 4.17 µM | 38.9 µM | 0.97 |  |  |  |  |  |  |  | 
19 | O=C(Nc1scc(-c2ccc(Br)cc2)c1C(=O)O)c1ccccc1F [ST/656010] | 8.32 µM | > 100 µM | 1.08 | > 50.1 µM | > 50.1 µM | 0.00 |  |  |  |  | 
20 | COc1cc(OC)cc(C(=O)Nc2nnc(-c3ccccc3Cl)o2)c1 [ST/709938] | 0.776 µM | 85.1 µM | 2.04 | 26.3 µM | > 50.1 µM | 0.28 |  |  |  |  | 
21 | Cc1cccc2sc(N(Cc3cccnc3)C(=O)C3CCCCC3)nc12 [ST/712281] | 3.16 µM | 85.1 µM | 1.43 |  |  |  |  |  |  |  | 
22 | Clc1cccc(Nc2nc(-c3ccncc3)cs2)c1 [ST/755059] | 6.76 µM | 32.4 µM | 0.68 |  |  |  |  |  |  |  | 
23 | O=C(Nc1ccccc1Cl)C(=Cc1cccc(F)c1)C(=O)Nc1ccccc1Cl [ST/786453] | 0.204 µM | 6.76 µM | 1.52 |  |  |  |  |  |  |  | 
24 | N#Cc1ccc(C=C(C(=O)Nc2ccccc2Cl)C(=O)Nc2ccccc2Cl)cc1 [ST/786454] | 0.0741 µM | 3.63 µM | 1.69 |  |  |  |  |  |  |  | 

Row | SMILES | IC50 [1] | IC50 (HepG2 cells) | pSI v HepG2 (HepG2 cells; [3]) | IC50 [2, 4] | IC50 (THP-1 macrophages) | pSI v THP-1 (THP-1 macrophages; [5]) | pSI v HepG2 (HepG2 cells) | pSI v HepG2 (HepG2 cells; [6]) | IC50 [2, 7] | pSI v THP-1 (THP-1 macrophages; [8]) | IC50 [2, 9]
25 | CCCc1cc(=O)[nH]c(Nc2cc(Cl)cc(Cl)c2)n1 [ST/826453] | 8.91 µM | 14.1 µM |  |  |  |  |  | 0.20 |  |  | 
26 | O=C(O)c1ccccc1Sc1ncnc2scc(-c3ccccc3)c12 [ST/837236] | 9.77 µM | > 100 µM |  |  | > 50.1 µM |  |  | 1.01 | 40.7 µM | 0.09 | 
27 | Clc1ccc(Cn2nnc(-c3ccc(CN4CCOCC4)cc3)n2)cc1 [ST/852088] | 3.24 µM | > 100 µM |  |  |  |  |  | 1.49 |  |  | 
28 | COc1cc([N+](=O)[O-])ccc1NC(=O)Nc1ccc(OC(F)(F)F)cc1 [ST/871026] | 6.92 µM | 13.2 µM |  |  |  |  |  | 0.28 |  |  | 
29 | Cc1ccc(NC(=O)Nc2ccc(Cl)c([N+](=O)[O-])c2)cc1 [ST/875327] | 9.55 µM | 22.9 µM |  |  |  |  |  | 0.38 |  |  | 
30 | O=C(Nc1nnc(-c2ccccc2)o1)c1ccc2c(c1)CCCC2 [ST/912241] | 1.23 µM | > 100 µM |  |  |  |  |  | 1.91 |  |  | 
31 | NC(=O)c1ccsc1NC(=O)c1ccc([N+](=O)[O-])s1 [ST/918837] | 0.331 µM | > 100 µM |  |  | 26.9 µM |  |  | 2.48 | 2.04 µM | 1.12 | 
32 | CS(=O)(=O)c1oc(-c2ccc(F)cc2)nc1S(=O)(=O)c1ccc(Cl)cc1 [ST/1032211] | 0.437 µM | 17.4 µM | 1.60 | 4.27 µM | 3.63 µM | -0.07 |  |  |  |  | 
33 | CC1(C)CCC(=Cc2ccc(Cl)cc2)CC1(O)Cn1ccnc1 (stereo not shown) [ST/1098001] | 5.5 µM | 46.8 µM | 0.93 |  |  |  |  |  |  |  | 
34 | COC1(C)CCC(=Cc2ccc(Cl)cc2)CC1(O)Cn1ccnc1 (stereo not shown) [ST/1099846] | 2.95 µM | 72.4 µM | 1.39 |  | > 50.1 µM |  |  |  |  |  | 
35 | O=C(Nc1ccc2scnc2c1)c1ccc(Cl)s1 [ST/1127597] | 6.46 µM | 97.7 µM | 1.18 |  |  |  |  |  |  |  | 
36 | Cc1ccccc1C(=O)N(Cc1cccnc1)c1nc2c(F)cccc2s1 [ST/1131244] | 8.13 µM | 52.5 µM | 0.81 |  |  |  |  |  |  |  | 
37 | COc1ccc(S(=O)(=O)Nc2cc([N+](=O)[O-])ccc2Cl)cc1C(C)C [ST/1153644] | 10 µM | > 100 µM | 1.00 | 38.9 µM | > 50.1 µM | 0.11 |  |  |  |  | 
38 | O=C(Nc1cc(-c2nc3ccccc3[nH]2)ccc1Cl)c1ccc(Cl)c([N+](=O)[O-])c1 [ST/1193938] | 8.71 µM | 22.9 µM | 0.42 |  |  |  |  |  |  |  | 
39 | N#Cc1nc(-c2ccccc2)oc1S(=O)(=O)c1ccc(Br)cc1 [ST/1197083] | 0.363 µM | 60.3 µM | 2.22 |  |  |  |  |  |  |  | 
40 | N#Cc1ccccc1Cn1cc(C(=O)c2ccccc2)c2ccccc21 [ST/1274537] | 3.55 µM | > 100 µM |  |  |  |  | 1.45 |  |  |  | 
41 | O=C(Nc1ccc(Cl)c(Cl)c1)Nc1ccc(F)c([N+](=O)[O-])c1 [ST/1276812] | 3.55 µM | 10 µM | 0.45 |  |  |  |  |  |  |  | 
42 | O=C(Nc1ccc2ncsc2c1)c1ccc(Br)s1 [ST/1280764] | 6.92 µM | > 100 µM | 1.16 |  |  |  |  |  |  |  | 
43 | COc1ccccc1-c1nn(-c2c(C)cccc2C)c2[nH]c(=O)cc(C(F)(F)F)c12 [ST/1471361] | 7.94 µM | > 100 µM | 1.10 |  |  |  |  |  |  |  | 
44 | OCc1ccn2nc(-c3ccc(F)cc3)c(-c3ccncc3)c2c1 [U11871/14/3] | 1.91 µM | > 100 µM |  |  |  |  |  | 1.72 |  |  | 
45 | O=[N+]([O-])c1ccc(NS(=O)(=O)c2ccccc2)c(-c2ccccc2)c1 [VDPP/14/72/1] | 5.01 µM | 35.5 µM |  |  |  |  |  | 0.85 |  |  | 
46 | NC(=O)c1ccsc1NC(=O)c1ccc([N+](=O)[O-])s1 [compound 3] |  |  |  |  |  |  |  |  |  |  | 2 µM
47 | CNC(=O)c1ccsc1NC(=O)c1ccc([N+](=O)[O-])s1 [compound 4] |  |  |  |  |  |  |  |  |  |  | 1.26 µM
48 | N#Cc1ccc(N2CCCC[C@H]2c2cccnc2)c([N+](=O)[O-])c1 [compound 5] |  |  |  |  |  |  |  |  |  |  | 2 µM
